From ChEMBL document CHEMBL1132189, “Three-dimensional quantitative structure-activity relationship analyses using comparative molecular field analysis and comparative molecular similarity indices analysis to elucidate selectivity differences of inhibitors binding to trypsin, thrombin, and factor Xa” (J Med Chem, 1999) come the findings set out here.

For one assay, the target named is Prothrombin (Bos taurus, UniProt P00735). The assay can be described thus: Binding affinity towards thrombin.
Another assay concerns the target T1, Serine protease 1 (Bos taurus, UniProt P00760).
T1 sequence (P00760 whole entry): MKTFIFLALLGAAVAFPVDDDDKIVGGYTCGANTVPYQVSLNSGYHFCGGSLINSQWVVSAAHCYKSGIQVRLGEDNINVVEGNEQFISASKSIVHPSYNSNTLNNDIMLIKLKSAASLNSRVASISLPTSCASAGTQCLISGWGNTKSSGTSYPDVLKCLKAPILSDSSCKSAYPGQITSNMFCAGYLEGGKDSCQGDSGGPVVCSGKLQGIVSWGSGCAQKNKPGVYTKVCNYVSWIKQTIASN
The assay can be described thus: Binding affinity towards trypsin.

The target in the next assay is Coagulation factor X (Homo sapiens, UniProt P00742). In words: Binding affinity towards Coagulation factor Xa.
Chain of Coagulation factor X (P00742 41-179 limits assumed): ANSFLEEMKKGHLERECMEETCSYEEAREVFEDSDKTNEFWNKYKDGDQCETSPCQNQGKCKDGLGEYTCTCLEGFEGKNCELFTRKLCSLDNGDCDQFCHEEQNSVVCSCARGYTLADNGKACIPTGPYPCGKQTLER
Chain of Coagulation factor X (P00742 235-488 limits assumed): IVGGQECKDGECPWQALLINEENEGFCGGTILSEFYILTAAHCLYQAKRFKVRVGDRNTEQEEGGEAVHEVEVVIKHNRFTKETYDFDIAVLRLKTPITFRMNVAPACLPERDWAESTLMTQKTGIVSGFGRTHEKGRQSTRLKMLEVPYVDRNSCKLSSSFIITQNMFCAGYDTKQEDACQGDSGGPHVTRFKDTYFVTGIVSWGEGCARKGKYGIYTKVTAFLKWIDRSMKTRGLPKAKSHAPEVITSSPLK

A word on the Ki: it is a measure of affinity in units of concentration, obtained from inhibition or displacement. Take `N=C(N)c1cccc(C[C@H](NS(=O)(=O)c2ccc3ccccc3c2)C(=O)N2CCCCCC2)c1`: the Ki on Prothrombin is 0.021 µM; on Serine protease 1, 0.55 µM; on Coagulation factor X it was 26 µM.

For `N=C(N)c1cccc(C[C@H](NS(=O)(=O)c2ccc3ccccc3c2)C(=O)N2CCC(C(=O)O)CC2)c1`, the Ki on Prothrombin is 0.57 µM; on Serine protease 1, 0.579 µM; on Coagulation factor X it was 43.4 µM.

Turning to `COC(=O)[C@H]1[C@@H](C)CCCN1C(=O)[C@H](Cc1cccc(C(=N)N)c1)NS(=O)(=O)c1ccc2ccccc2c1`, the Ki is 0.52 µM at Prothrombin, 1.8 µM at Serine protease 1 and 36 µM at Coagulation factor X.

As to `N=C(N)c1cccc(C[C@H](NS(=O)(=O)c2ccc3ccccc3c2)C(=O)N2CCCC[C@@H]2C(=O)O)c1`, the Ki on Prothrombin was 0.26 µM; at Serine protease 1, 0.631 µM; at Coagulation factor X, 38 µM.

For the molecule `CS(=O)(=O)N1CCN(C(=O)[C@@H](N)Cc2cccc(C(=N)N)c2)CC1`, the figures for the Ki on Prothrombin, at Serine protease 1 and at Coagulation factor X were 13 µM, 29 µM and 1000 µM, respectively.

`N=C(N)c1cccc(C[C@H](NS(=O)(=O)c2ccc3ccccc3c2)C(=O)N2Cc3ccccc3C[C@@H]2C(=O)OCc2ccccc2)c1`: the Ki is 0.69 µM at Prothrombin, 1.2 µM at Serine protease 1 and 7.76 µM on Coagulation factor X.

On to `N=C(N)c1cccc(C[C@H](NS(=O)(=O)c2ccc3ccccc3c2)C(=O)N2CCCCCCC2)c1`, for which the Ki is 0.03 µM on Prothrombin, 0.61 µM at Serine protease 1 and 22 µM on Coagulation factor X.

On to `N=C(N)c1cccc(C[C@H](NS(=O)(=O)c2ccc3ccccc3c2)C(=O)N2CCC(C(=O)OC3CCCCC3)CC2)c1`, for which the figures for the Ki on Prothrombin, on Serine protease 1 and at Coagulation factor X were 2.1 µM, 0.08 µM and 7.6 µM, respectively.

For the molecule `CC(C)c1cc(C(C)C)c(S(=O)(=O)N[C@@H](Cc2cccc(C(=N)N)c2)C(=O)N2CCC[C@H](C(=O)OCc3ccccc3)C2)c(C(C)C)c1`, the values for the Ki at Prothrombin, at Serine protease 1 and on Coagulation factor X were 0.899 µM, 0.851 µM and 0.899 µM, respectively.

For `CN(C)C(=O)N1CCN(C(=O)[C@H](Cc2cccc(C(=N)N)c2)NS(=O)(=O)c2ccc3ccccc3c2)CC1`, the figures for the Ki at Prothrombin, on Serine protease 1 and at Coagulation factor X were 0.00871 µM, 0.17 µM and 24 µM, respectively.

As to `COC(=O)[C@H]1C[C@H](C)CCN1C(=O)[C@H](Cc1cccc(C(=N)N)c1)NS(=O)(=O)c1ccc2ccccc2c1`, the figures for the Ki at Prothrombin, on Serine protease 1 and on Coagulation factor X were 0.0959 µM, 2.2 µM and […], respectively.

As for `CNC(=O)[C@H](Cc1cccc(C(=N)N)c1)NS(=O)(=O)c1c(C)cc(OC)c(C)c1C`, the Ki was 17 µM at Prothrombin, 140 µM at Serine protease 1 and 190 µM at Coagulation factor X.

Take `N=C(N)c1cccc(C[C@H](NS(=O)(=O)c2ccc3ccccc3c2)C(=O)N2CCNCC2)c1`: the Ki at Prothrombin was 0.5 µM; at Serine protease 1 it was 0.22 µM; at Coagulation factor X it was 21 µM.

For `Cc1ccc(S(=O)(=O)N[C@@H](Cc2cccc(C(=N)N)c2)C(=O)N2CCCC2)cc1`, the figures for the Ki at Prothrombin, on Serine protease 1 and at Coagulation factor X were 0.35 µM, 2.2 µM and 76 µM, respectively.

As for `N=C(N)c1cccc(C[C@H](NS(=O)(=O)c2ccc3ccccc3c2)C(=O)N2CC[C@@H]3CCCC[C@H]32)c1`, the figures for the Ki on Prothrombin, on Serine protease 1 and at Coagulation factor X were 0.32 µM, 1.2 µM and 13 µM, respectively.

As for `Cc1c(C)c(S(=O)(=O)N[C@@H](Cc2cccc(C(=N)N)c2)C(=O)N2CCN(S(C)(=O)=O)CC2)c(C)c2c1OC(C)(C)CC2`, the inhibitory constant (Ki) is 0.00741 µM on Prothrombin, 0.76 µM on Serine protease 1 and 74.1 µM on Coagulation factor X.

In the case of `N=C(N)c1cccc(C[C@H](NS(=O)(=O)c2ccc3ccccc3c2)C(=O)N2CCc3ccccc3C2)c1`, the Ki is 0.037 µM on Prothrombin, 0.26 µM on Serine protease 1 and 18 µM at Coagulation factor X.

Regarding `CCCCNC(=O)[C@H](Cc1cccc(C(=N)N)c1)NS(=O)(=O)c1ccc2ccccc2c1`, the Ki on Prothrombin is 0.12 µM; at Serine protease 1, 4 µM; at Coagulation factor X, 46.8 µM.

For the molecule `N=C(N)c1cccc(C[C@H](NS(=O)(=O)c2ccc3ccccc3c2)C(=O)N2CCOCC2)c1`, the Ki on Prothrombin was 0.042 µM; on Serine protease 1 it was 0.21 µM; at Coagulation factor X, 16 µM.

`CN(C)c1cccc2c(S(=O)(=O)N[C@@H](Cc3cccc(C(=N)N)c3)C(=O)N3CCN(S(C)(=O)=O)CC3)cccc12`: the Ki is 0.00417 µM at Prothrombin, 0.17 µM at Serine protease 1 and 3.89 µM at Coagulation factor X.

Turning to `CC(C)OC(=O)C1CCN(C(=O)[C@H](Cc2cccc(C(=N)N)c2)NS(=O)(=O)c2ccc3ccccc3c2)CC1`, the results for the Ki at Prothrombin, at Serine protease 1 and at Coagulation factor X were 0.71 µM, 0.023 µM and 25.1 µM, respectively.

Consider `N=C(N)c1cccc(C[C@H](NS(=O)(=O)c2ccc3ccccc3c2)C(=O)N2CCCc3ccccc32)c1`, for which the results for the Ki on Prothrombin, on Serine protease 1 and on Coagulation factor X were 0.12 µM, 1.51 µM and 2.3 µM, respectively.

Consider `N=C(N)c1cccc(C[C@H](NS(=O)(=O)c2ccc3ccccc3c2)C(=O)N2CCC(C=O)CC2)c1`, for which the Ki is 0.037 µM on Prothrombin, 0.22 µM at Serine protease 1 and 19 µM at Coagulation factor X.

In the case of `CNC(=O)[C@H](Cc1cccc(C(=N)N)c1)NS(=O)(=O)c1ccc(C)cc1`, the Ki at Prothrombin was 18 µM; at Serine protease 1, 46 µM; at Coagulation factor X it was 40 µM.

As for `COC(=O)[C@H]1Cc2ccccc2CN1C(=O)[C@H](Cc1cccc(C(=N)N)c1)NS(=O)(=O)c1ccc2ccccc2c1`, the Ki at Prothrombin is 0.2 µM; at Serine protease 1, 1.2 µM; at Coagulation factor X it was 27 µM.

Take `CNC(=O)[C@H](Cc1cccc(C(=N)N)c1)NS(=O)(=O)c1c(C(C)C)cc(C(C)C)cc1C(C)C`: the Ki is 3.8 µM on Prothrombin, 26 µM on Serine protease 1 and 11 µM on Coagulation factor X.

As to `CNC(=O)C1CCN(C(=O)[C@H](Cc2cccc(C(=N)N)c2)NS(=O)(=O)c2ccc3ccccc3c2)CC1`, the Ki was 0.16 µM at Prothrombin, 0.16 µM on Serine protease 1 and 76 µM on Coagulation factor X.

Consider `N=C(N)c1cccc(C[C@H](NS(=O)(=O)c2ccc3ccccc3c2)C(=O)N2CCN(c3ccccc3)CC2)c1`, for which the inhibition constant (Ki) is 0.52 µM at Prothrombin, 0.027 µM on Serine protease 1 and 27 µM at Coagulation factor X.

`N=C(N)c1cccc(C[C@H](NS(=O)(=O)c2ccc3ccccc3c2)C(=O)N2CCCC2)c1`: the Ki on Prothrombin was 0.052 µM; on Serine protease 1 it was 0.437 µM; at Coagulation factor X, 50 µM.

`CNC(=O)[C@H](Cc1cccc(C(=N)N)c1)NS(=O)(=O)c1ccc2ccccc2c1`: the Ki at Prothrombin is 5.7 µM; at Serine protease 1, 25.1 µM; at Coagulation factor X it was 26 µM.

Consider `N=C(N)c1cccc(C[C@H](NS(=O)(=O)c2ccc3ccccc3c2)C(=O)N2CCN(C(=O)CO)CC2)c1`, for which the Ki at Prothrombin is 0.0579 µM; at Serine protease 1 it was 1.1 µM; at Coagulation factor X it was 35 µM.

With `Cc1ccc(S(=O)(=O)N[C@@H](Cc2cccc(C(=N)N)c2)C(=O)N2CCOCC2)cc1`, the values for the Ki at Prothrombin, on Serine protease 1 and at Coagulation factor X were 0.17 µM, 0.71 µM and 52 µM, respectively.

For `CC(C)OC(=O)[C@H]1CCCN(C(=O)[C@H](Cc2cccc(C(=N)N)c2)NS(=O)(=O)c2ccc3ccccc3c2)C1`, the Ki at Prothrombin is 0.511 µM; on Serine protease 1 it was 0.427 µM; on Coagulation factor X it was 16 µM.

Take `N=C(N)c1cccc(C[C@H](NS(=O)(=O)c2ccc3ccccc3c2)C(=O)N2CCC(N3CCCCC3)CC2)c1`: the values for the inhibitory constant (Ki) at Prothrombin, at Serine protease 1 and at Coagulation factor X were 15.1 µM, 1 µM and 22 µM, respectively.

For `Cc1ccc(S(=O)(=O)N[C@@H](Cc2cccc(C(=N)N)c2)C(=O)N2CCC(C)CC2)cc1`, the Ki at Prothrombin was 0.026 µM; on Serine protease 1, 0.52 µM; at Coagulation factor X it was 71 µM.

As for `COC(=O)[C@H](Cc1cccc(C(=N)N)c1)NS(=O)(=O)c1ccc2ccccc2c1`, the Ki on Prothrombin was 0.28 µM; at Serine protease 1, 2.51 µM; at Coagulation factor X, 2.51 µM.

In the case of `N=C(N)c1cccc(C[C@H](NS(=O)(=O)c2ccc3ccccc3c2)C(=O)N2CCC[C@H](C(=O)NCc3ccccc3)C2)c1`, the values for the inhibitory constant (Ki) at Prothrombin, at Serine protease 1 and on Coagulation factor X were 0.28 µM, 0.12 µM and 17 µM, respectively.

For the molecule `N=C(N)c1cccc(C[C@H](NS(=O)(=O)c2cccc3ccccc23)C(=O)N2CCCCC2)c1`, the Ki is 0.23 µM at Prothrombin, 0.61 µM at Serine protease 1 and 17 µM on Coagulation factor X.

With `COc1cc(C)c(S(=O)(=O)N[C@@H](Cc2cccc(C(=N)N)c2)C(=O)N2CCC(C)CC2)c(C)c1C`, the figures for the Ki at Prothrombin, at Serine protease 1 and at Coagulation factor X were 0.0889 µM, 0.78 µM and 100 µM, respectively.

Regarding `COC(=O)[C@H]1CCC[C@H](C)N1C(=O)[C@H](Cc1cccc(C(=N)N)c1)NS(=O)(=O)c1ccc2ccccc2c1`, the Ki at Prothrombin is 0.42 µM; on Serine protease 1, 2.1 µM; on Coagulation factor X, 3.2 µM.

In the case of `N=C(N)c1cccc(C[C@H](NS(=O)(=O)c2ccc3ccccc3c2)C(=O)N2CCC[C@H](C(=O)OCc3ccccc3)C2)c1`, the Ki is 0.3 µM at Prothrombin, 0.16 µM on Serine protease 1 and 8.59 µM at Coagulation factor X.
